In patent US7537775B2, “Low pH skin care compositions containing dehydroacetic acid” (The Procter & Gamble Company, priority 2005, dated 2009):

Assay: Stability of dehydroacetic acid in aqueous low-pH skin care compositions
Assay type: physicochemical
Settings: observation from formulation attempts
Text: Dehydroacetic acid also has proven effective in improving skin texture and appearance, and has the additional benefit of reducing oily skin. See, for example, Biederman et al., U.S. Pat. No. 6,150,403. […] Therefore, a need remains for stable, low-pH skin care compositions to effect delivery of dehydroacetic acid, either alone or in combination with other low-pH skin care actives.
The present invention describes skin care compositions in which dehydroacetic acid is stabilized at a pH of about 4.5 and below. […] To effect stabilization of dehydroacetic acid, the compositions of the present invention include oils that have both an optimal solubility parameter and limited solubility in water. The present invention describes stable skin care compositions made by a procedure that utilizes this combination of properties to stabilize dehydroacetic acid in its active form at a low-pH.
Herein, “stable” and “stability” mean compositions which are substantially unaltered in chemical or physical state. […] Transport and storage conditions may include prolonged exposure to temperatures of from about −50° F. to about 150° F. Stability may be determined either by empirical observation or by appropriate methods of chemical analysis that would be known to one of skill in the art.

CC(=O)C1C(=O)C=C(C)OC1=O (stereo not shown) [dehydroacetic acid, 3-acetyl-6-methyl-2H-pyran-2,4,(3H)-dione]
pH below which dehydroacetic acid begins to exhibit instability: below 7.0
